In US8258138B2, “Potassium channel blockers” (Xention Limited, priority 2008, dated 2012):

How the values were obtained:
human Kv1.3 = biological target: T1, human Kv1.3 (Homo sapiens, UniProt P22001); experiment: Kv1.3 Autopatch electrophysiology (whole cell patch-clamp, inhibition of charge movement); type: cell-based; settings: compound at 1 μM; cells stably transfected with human Kv1.3; room temperature; total charge during step to +30 mV relative to control; read-out: hKv1.3 % inh.
T1 construct: expressed in transfected cells; host or cells: stably transfected cells grown in medium for CHO cells
Procedure, shortened: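 Whole-cell AutoPatch recordings were made at room temperature from cells held at −80 mV, with 500 ms steps to +30 mV every 15 s. The bath contained 10 mM KCl, pH 7.4, and the pipette K-gluconate/EGTA, pH 7.2.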

hKv1.5 = hKv1.5 (Homo sapiens, UniProt P22460); experiment: Kv1.5 Autopatch electrophysiology (whole cell patch-clamp); type: cell-based; settings: compound at 1 μM; room temperature (22-24° C.); total charge during step to 0 mV; read-out: hKv1.5 % inh.
Method: Kv1.5 Autopatch Electrophysiology Method
The external bathing solution contained (in mM): 150 NaCl, 10 KCl, […], 3 MgCl2, 1 CaCl2, 10 HEPES, pH 7.4. Patch pipettes were filled with an electrode solution of composition (in mM): 160 KCl, 0.5 MgCl2, 10 HEPES, 1 EGTA, pH 7.4 with KOH.
Compounds were dissolved in DMSO (100%) and made up in the external bather at a concentration of 1 μM. All experiments were conducted at room temperature (22-24° C.).
A cell suspension (10 ml), with a density of 100,000 cells/ml, was aliquoted into a 15 ml centrifuge tube and transferred to an incubator (37° C., 5% CO2) for approximately one hour before use. Following 60 min incubation, a tube was taken and centrifuged at 1000 rpm for 4 mins at room temperature. 9.5 ml supernatant was thence discarded, leaving a cell pellet at the bottom of the tube. The pellet was then resuspended using 100 μl of cold (4° C.), filtered (0.22 μm), 0.2% BSA/bather solution (0.02 g BSA/10 ml bather). The bottom of the tube was manually agitated gently until the solution became cloudy with cells. The 100 μl cell resuspension solution was then stored on the bench at 4° C. (using a Peltier-based temperature control device) until used.
A length of capillary glass (1B150F-4, WPI) was dipped into the cell suspension solution, such that ˜3 cm column of fluid was taken up by capillary action. A Ag/AgCl wire was dropped into the non-dipped end of the capillary also. The outside of the solution-filled end of the capillary was then dried and the capillary was loaded into the AutoPatch™.
Borosilicate glass patch pipettes (from 1.5 mm OD, thin-walled filamented, GC150-TF capillary glass, Harvard) were pulled using a DMZ pipette puller (Zeitz Instruments), and were back-filled using the internal pipette solution, being careful that no bubbles remain at the tip or in the body of the pipette. Patch pipettes typically had resistances of 2.3-3.5 MΩ. Once filled, the pipette tip and a proportion of the shaft (˜15 mm) were dipped into Sigmacote (Sigma). The recording pipette was then loaded into the AutoPatch™ Automated patch-clamping was initiated by the operator, but thereafter AutoPatch.exe continued the experiment providing that pre-set conditions and criteria were satisfied.
Whole cell patch-clamp recordings were made using the AutoPatch™ rig, which incorporated an EPC9 amplifier (HEKA, Germany) under control of Pulse software (v8.54, HEKA, Germany), a motion controller with 2 translators (Newport, UK), valve controller (VF1) and a c-level suction device all at room temperature (22-24° C.). This equipment was completely under the control of AutoPatch.exe and operator intervention was only made when there was a requirement to refill the drug reservoirs or to prevent the loss of a cell due to a technical error. Cells with an Rseries greater than 18 MΩ were discounted from the experiment.
Qualification stages prior to perfusion and drug application ensured that the observed current met the criteria for the experiment. Only those cells with an IK>500 pA were used for experiments. Cells were continuously perfused with external solution at a flow rate of 1.8-2 ml/minute. […] Online analysis of the hKv1.5 current during the application of compounds was performed by the AutoPatch™ software. Voltage-step protocols and analysis of data was performed as described for conventional electrophysiology.
Electrophysiology voltage-step protocols and analysis of data was performed as follows. Data was sampled at 5 kHz, and filtered with a −3 dB bandwidth of 2.5 kHz. Cells were held at a voltage of −80 mV. Currents were evoked to a voltage step for 1000 ms in duration at 0 mV every 5 s. Currents were analysed using Pulsefit software (v8.54, HEKA, Germany), with the total charge measured during the whole of the voltage step. All other plots were produced using Igor Pro (WaveMetrics).

hKv1.5, sequence (P22460 whole entry): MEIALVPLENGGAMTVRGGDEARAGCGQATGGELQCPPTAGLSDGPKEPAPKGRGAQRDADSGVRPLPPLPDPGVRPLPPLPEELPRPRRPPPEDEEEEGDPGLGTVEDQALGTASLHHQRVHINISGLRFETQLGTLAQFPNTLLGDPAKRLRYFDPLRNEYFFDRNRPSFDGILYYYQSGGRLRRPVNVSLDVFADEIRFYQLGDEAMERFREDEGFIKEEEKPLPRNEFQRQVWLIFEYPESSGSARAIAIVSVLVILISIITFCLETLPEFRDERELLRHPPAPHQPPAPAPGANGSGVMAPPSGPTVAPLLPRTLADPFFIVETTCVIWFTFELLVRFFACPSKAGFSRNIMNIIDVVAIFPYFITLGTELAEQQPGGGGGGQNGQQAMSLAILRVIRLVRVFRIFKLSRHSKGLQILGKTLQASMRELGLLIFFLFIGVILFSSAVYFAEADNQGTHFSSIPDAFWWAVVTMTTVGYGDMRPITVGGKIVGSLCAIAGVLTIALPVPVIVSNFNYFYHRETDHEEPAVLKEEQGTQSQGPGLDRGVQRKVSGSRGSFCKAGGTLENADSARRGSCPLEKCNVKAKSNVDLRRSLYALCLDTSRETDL
T1 sequence (P22001 whole entry): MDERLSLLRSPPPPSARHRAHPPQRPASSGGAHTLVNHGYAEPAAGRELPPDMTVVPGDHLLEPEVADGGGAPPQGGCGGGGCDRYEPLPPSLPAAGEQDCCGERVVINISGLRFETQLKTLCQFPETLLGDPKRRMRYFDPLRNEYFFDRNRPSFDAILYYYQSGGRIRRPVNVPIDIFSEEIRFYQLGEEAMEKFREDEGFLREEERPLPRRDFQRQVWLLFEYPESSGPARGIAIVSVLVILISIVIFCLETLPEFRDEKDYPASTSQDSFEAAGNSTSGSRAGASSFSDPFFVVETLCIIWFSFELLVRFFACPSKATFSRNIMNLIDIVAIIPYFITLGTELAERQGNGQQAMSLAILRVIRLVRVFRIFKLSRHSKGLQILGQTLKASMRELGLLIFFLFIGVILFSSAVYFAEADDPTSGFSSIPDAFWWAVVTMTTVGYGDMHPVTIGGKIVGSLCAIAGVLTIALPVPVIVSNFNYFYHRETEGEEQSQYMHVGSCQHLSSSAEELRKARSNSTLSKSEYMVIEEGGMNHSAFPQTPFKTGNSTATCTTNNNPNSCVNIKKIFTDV

Q: How did the inhibition at 1 µM (human Kv1.3) turn out when `Cc1cc(N(Cc2ccccc2)S(=O)(=O)c2ccccc2)ccc1C(=O)N1CCN(c2ccccc2)CC1` [Example 52, N-Benzyl-N-[3-methyl-4-(4-phenyl-piperazine-1-carbonyl)-phenyl]-benzenesulfonamide] was run?
A: 67%

Q: What about the inhibition at 1 µM (hKv1.5) of the same compound?
A: 93.6%

Q: `O=C(c1ccc(N(Cc2ccccc2)S(=O)(=O)c2ccc([N+](=O)[O-])cc2)cc1)N1CCN(c2ccccc2)CC1` [Example 40, N-Benzyl-4-nitro-N-[4-(4-phenyl-piperazine-1-carbonyl)-phenyl]-benzenesulfonamide] was tested. Which inhibition at 1 µM (human Kv1.3) did it give?
A: 62%

Q: What about the inhibition at 1 µM (hKv1.5) of the same compound?
A: 62.4%

Q: With `O=C(c1ccc(N(Cc2ccccc2)S(=O)(=O)c2ccccc2F)cc1)N1CCN(c2ccccc2)CC1` [Example 20, N-Benzyl-2-fluoro-N-[4-(4-phenyl-piperazine-1-carbonyl)-phenyl]-benzenesulfonamide] as the compound, how does the inhibition at 1 µM (human Kv1.3) read?
A: 82%

Q: What about the inhibition at 1 µM (hKv1.5) of the same compound?
A: 88.8%

Q: What does the source list for `O=C(c1ccc(N(Cc2ccccc2)S(=O)(=O)c2ccccc2)cc1)N1CCc2ccccc2C1` [Example 55, N-Benzyl-N-[4-(3,4-dihydro-1H-isoquinoline-2-carbonyl)-phenyl]-benzenesulfonamide]?
A: inhibition at 1 µM (human Kv1.3): 81%; inhibition at 1 µM (hKv1.5): 50.1%

Q: What does the source list for `COc1ccccc1CN(c1ccc(C(=O)N2CCN(c3ccccc3)CC2)cc1)S(=O)(=O)c1ccccc1` [Example 32, N-(2-Methoxy-benzyl)-N-[4-(4-phenyl-piperazine-1-carbonyl)-phenyl]-benzenesulfonamide]?
A: inhibition at 1 µM (human Kv1.3): 68%; inhibition at 1 µM (hKv1.5): 44.2%

Q: Which inhibition at 1 µM (human Kv1.3) does the source give for `O=C(c1ccc(N(Cc2ccccc2)S(=O)(=O)c2ccc3c(c2)OCCO3)cc1)N1CCN(c2ccccc2)CC1` [Example 15, 2,3-Dihydro-benzo[1,4]dioxine-6-sulfonic acid benzyl-[4-(4-phenyl-piperazine-1-carbonyl)-phenyl]-amide] here?
A: 66%

Q: What about the inhibition at 1 µM (hKv1.5) of the same compound?
A: 80.4%

Q: How did the inhibition at 1 µM (human Kv1.3) turn out when `N#Cc1cccc(S(=O)(=O)N(Cc2ccccc2)c2ccc(C(=O)N3CCN(c4ccccc4)CC3)cc2)c1` [Example 23, N-Benzyl-3-cyano-N-[4-(4-phenyl-piperazine-1-carbonyl)-phenyl]-benzenesulfonamide] was run?
A: 79%

Q: What about the inhibition at 1 µM (hKv1.5) of the same compound?
A: 93.1%

Q: `O=C(c1ccc(N(Cc2cccc(F)c2)S(=O)(=O)c2ccccc2)cc1)N1CCN(c2ccccc2)CC1` [Example 31, N-(3-Fluoro-benzyl)-N-[4-(4-phenyl-piperazine-1-carbonyl)-phenyl]-benzenesulfonamide] was tested. Which inhibition at 1 µM (human Kv1.3) did it give?
A: 67%

Q: And the inhibition at 1 µM (hKv1.5)?
A: 61.6%

Q: `O=C(c1ccc(N(Cc2ccccc2)S(=O)(=O)c2cccc(F)c2)cc1)N1CCN(c2ccccc2)CC1` [Example 21, N-Benzyl-3-fluoro-N-[4-(4-phenyl-piperazine-1-carbonyl)-phenyl]-benzenesulfonamide] was tested. Which inhibition at 1 µM (human Kv1.3) did it give?
A: 70%

Q: What about the inhibition at 1 µM (hKv1.5) of the same compound?
A: 70.9%

Q: Which inhibition at 1 µM (human Kv1.3) does the source give for `O=C(c1ccc(N(Cc2ccc(Cl)cc2)S(=O)(=O)c2ccccc2)cc1)N1CCN(c2ccccc2)CC1` [Example 1, N-(4-Chloro-benzyl)-N-[4-(4-phenyl-piperazine-1-carbonyl)-phenyl]-benzenesulfonamide] here?
A: 91%

Q: And the inhibition at 1 µM (hKv1.5)?
A: 94%

Q: What does the source list for `Cn1cnc(S(=O)(=O)N(Cc2ccccc2)c2ccc(C(=O)N3CCOC(c4ccccc4)C3)cc2F)c1` (stereo not drawn) [Example 68, 1-Methyl-1H-imidazole-4-sulfonic acid benzyl-[2-fluoro-4-(2-phenyl-morpholine-4-carbonyl)-phenyl]-amide]?
A: inhibition at 1 µM (human Kv1.3): 90%; inhibition at 1 µM (hKv1.5): 62.8%

Q: For `O=C(c1ccc(N(Cc2ccccc2)S(=O)(=O)c2ccc(F)cc2)cc1)N1CCN(c2ccccc2)CC1` [Example 19, N-Benzyl-4-fluoro-N-[4-(4-phenyl-piperazine-1-carbonyl)-phenyl]-benzenesulfonamide], which inhibition at 1 µM (human Kv1.3) is on record?
A: 83%

Q: And the inhibition at 1 µM (hKv1.5)?
A: 54.6%
